Patent EP4112728A1, “METHOD FOR I[…]-BINDING PEPTIDES” (ETH Zürich, priority 2021, dated 2023)

Assays:
[1] = tested on: other clinically relevant Gram negative and positive bacteria; experiment: Minimal inhibitory concentration (MIC) against other strains; format: cell-based; conditions: range over the strains tested (FIG.21)
[2] = tested on: cspA promoter; experiment: Stress response assay, cold shock response (PcspA-gfp) indicating translation inhibition; format: cell-based, E. coli; conditions: GFP under cspA promoter, relative to inactive control HNP-1; one sided t-test, adj. p<0.05
Description: Lastly, the inventors characterized the 50 most growth inhibitory (38 SIMILARS, 12 PARENTS) peptides using different assays (FIG.18). The inventors first used two biosensor constructs, containing the cspA and recA promoters, which upon activation are indicative of translation impairment and DNA damage, respectively. […] Next, the inventors measured membrane damage by quantifying propidium iodide (PI) uptake.
The inventors selected peptide-expressing strains of rank 1-50, previously generated for the monoseptic growth assay. […] Moreover, two plasmids (cloning vector: puA66) containing either the promoter of the gene for recombinase A (PrecA) or for the gene for cold shock protein A (PcspA) were purified from the E. coli Alon collection. Both plasmids contained a transcriptional fusion of their promoter with a downstream gene for green fluorescent protein (gfp), an additional kanamycin resistance cassette and a pSC101 origin of replication. […] The inventors recorded OD and GFP expression (λEx 488 nm/λEm 530nm) after 1.5 h and 4.5 h using a Tecan Infinite 200 PRO (37 °C, 1.5 mm orbital shaking). For each strain, the inventors calculated the specific fluorescence change between the two time points (GFP/OD (4.5 h) - GFP/OD (1.5 h)). Statistical significance was calculated by one sided t-tests, adjusted for multiple testing by Benjamini-Hochberg, using the signal of HNP-13425 APD

Sequence | MIC [1] [µM] | translational impairment [2]
GWFKKAWRKVKHAGRRVLDTAKGVGRHYLNNWLNRYR [ID 4545] | 0.4 to 5.6 | 
VDKGGYLPRPTPPRPVYR [ID 7122] |  | strongest indication for translational impairment
